{
  "source": "paper PMC6895048",
  "about": "“4,5-Disubstituted 1,2,3-triazoles: Effective Inhibition of Indoleamine 2,3-Dioxygenase 1 Enzyme Regulates T cell Activity and Mitigates Tumor Growth” (Scientific Reports, 2019)",
  "key": {"IDO1 [1]": {"test_system": "IDO1", "conditions": "cited from earlier work"}, "[2]": {"conditions": "cited from earlier work"}, "IDO1 [3]": {"test_system": "IDO1", "conditions": "cited from earlier work", "remark": "listed apart in the source"}, "IDO1 [4]": {"target": "T1, IDO1 (Homo sapiens, UniProt P14902)", "T1 sequence (P14902 whole entry)": "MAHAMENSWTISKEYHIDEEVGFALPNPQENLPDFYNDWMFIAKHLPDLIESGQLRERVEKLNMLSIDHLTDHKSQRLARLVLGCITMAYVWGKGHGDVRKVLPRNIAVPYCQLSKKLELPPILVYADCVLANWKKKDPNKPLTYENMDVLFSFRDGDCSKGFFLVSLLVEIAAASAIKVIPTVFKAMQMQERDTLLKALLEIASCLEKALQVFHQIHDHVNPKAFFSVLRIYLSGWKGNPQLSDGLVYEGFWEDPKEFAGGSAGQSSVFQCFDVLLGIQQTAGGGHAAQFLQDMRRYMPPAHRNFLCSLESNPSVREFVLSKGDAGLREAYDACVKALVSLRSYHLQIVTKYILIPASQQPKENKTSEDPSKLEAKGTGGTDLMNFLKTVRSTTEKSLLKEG", "assay": "Kynurenine assay by HPLC analysis, IDO1", "type": "biochemical", "parameters": "made in house; host or cells: Escherichia coli M15 (pQE30 vector with pREP4 plasmid)", "conditions": "for % Of inhibition for IDO1 enzyme: HPLC", "experimental": "(§1) HPLC based IDO1, and TDO inhibition assays were performed according to the earlier reported procedure[19],[27]–[30]. The reaction mixture (250 µL) contained KPB (100 mM, pH 6.5 for IDO1 and 50 mM, pH 8.0 for TDO), sodium ascorbate (20 mM), methylene blue (10 µM), catalase (240 nM, from bovine liver, Sigma), L-Trp (150 µM), purified enzyme (40 nM for IDO1 and 25 nM for TDO), DMSO (0.05%, v/v), Triton-X 100 (0.01%, v/v) and inhibitors. The concentration of the compound was varied from 100 µM to 32 nM by serial dilution. The mixture was incubated at 37 °C for 1 hour in the absence and presence of the synthesized compounds. The reaction was then quenched using 50 µL of 30% (w/v) trichloroacetic acid and incubated at 65 °C for additional 15 minutes to allow complete hydrolysis of N-formylkynurenine to kynurenine. After that, the mixture was centrifuged at 10,000 rpm for 10 minutes, and 100 µL of clear solution was transferred to another tube for HPLC analysis. Then, 20 µL of the reaction mixture was then injected through Ascentis® express C18, 2.7 µm HPLC column with a flow rate of 0.5 mL/minute of the mobile phase containing 50% sodium citrate buffer (40 mM, pH 2.25) and 50% methanol (v/v) with 400 µM SDS. The area under the curve at 365 nm chromatogram corresponding to the kynurenine formation was recorded, and % of inhibition was calculated using standard curve prepared with pure kynurenine (from Sigma) under similar experimental conditions."}, "[5]": {"target": "T2, purified human TDO enzyme (Homo sapiens, UniProt P48775)", "T2 construct": "6xHis (N); made in house; host or cells: Escherichia coli BL21 (DE3) (pET 28a vector)", "T2 sequence (P48775 whole entry)": "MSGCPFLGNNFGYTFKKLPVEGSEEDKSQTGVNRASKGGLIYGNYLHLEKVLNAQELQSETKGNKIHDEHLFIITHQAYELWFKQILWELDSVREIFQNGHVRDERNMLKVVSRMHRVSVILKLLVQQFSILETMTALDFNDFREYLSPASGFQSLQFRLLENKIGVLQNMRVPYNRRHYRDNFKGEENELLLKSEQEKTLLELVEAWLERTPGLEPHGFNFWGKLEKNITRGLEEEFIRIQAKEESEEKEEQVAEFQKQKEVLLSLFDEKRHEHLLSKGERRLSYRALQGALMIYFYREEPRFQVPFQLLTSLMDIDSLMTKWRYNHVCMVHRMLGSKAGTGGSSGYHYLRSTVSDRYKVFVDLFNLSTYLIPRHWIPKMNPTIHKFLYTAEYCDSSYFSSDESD", "assay": "TDO inhibition assay by the spectrometric method", "type": "biochemical", "conditions": "spectrophotometric", "experimental": "Both IDO1 and TDO inhibition assays were performed according to the reported procedures[26]–[30],[50],[51]. The solubility of the compounds in water was either moderate or poor. […] In the assay system, the minimum and maximum amount of DMSO was 0.02% and 2%, respectively. The standard reaction mixture (500 μL) containing KPB (100 mM, pH 6.5 for IDO1 enzyme and 50 mM, pH 8.0 for TDO enzyme), sodium ascorbate (20 mM), methylene blue (10 µM), catalase (240 nM, from bovine liver), L-Trp (150 µM), purified enzyme (40 nM for IDO1 and 25 nM for TDO), DMSO (0.05%, v/v), Triton-X 100 (0.01%, v/v) and inhibitors was incubated at 37 °C for 1 hour. The concentration of the inhibitors was varied from 100 µM to 32 nM by serial dilution technique. Then, the reaction was quenched with 100 µL of 30% (w/v) trichloroacetic acid and was incubated for further 15 minutes at 65 °C. After that, 2% (w/v) pDMAB was used to quantify the amount of kynurenine formation. The absorbance of the reaction mixture was recorded by UV-Vis spectrophotometer at 480 nm. The Km = 59.76 µM and Kcat = 6.18 sec^−1."}, "TDO enzyme": {"target": "T3, TDO enzyme (Homo sapiens, UniProt P48775)", "T3 construct": "6xHis (N); made in house; host or cells: Escherichia coli BL21 (DE3) (pET 28a vector)", "T3 sequence (P48775 whole entry)": "as above", "assay": "HPLC based TDO inhibition assay", "type": "biochemical", "experimental": "as §1"}, "[6]": {"target": "T4, purified human IDO1 enzyme (Homo sapiens, UniProt P14902)", "T4 construct": "made in house; host or cells: Escherichia coli M15 (pQE30 vector with pREP4 plasmid)", "T4 sequence (P14902 whole entry)": "as the sequence (P14902 whole entry) above", "assay": "IDO1 inhibition assay by the spectrometric method (pDMAB)", "type": "biochemical", "conditions": "purified human IDO1; spectrophotometric; mean of three independent assays; read-out: hIDO1 IC50", "experimental": "Both IDO1 and TDO inhibition assays were performed according to the reported procedures[26]–[30],[50],[51]. […] In the assay system, the minimum and maximum amount of DMSO was 0.02% and 2%, respectively. […] The concentration of the inhibitors was varied from 100 µM to 32 nM by serial dilution technique. Then, the reaction was quenched with 100 µL of 30% (w/v) trichloroacetic acid and was incubated for further 15 minutes at 65 °C. After that, 2% (w/v) pDMAB was used to quantify the amount of kynurenine formation. The absorbance of the reaction mixture was recorded by UV-Vis spectrophotometer at 480 nm."}, "IDO1 [7]": {"target": "T1, IDO1", "assay": "Cellular IDO1 activity assay in IFN-γ induced MDA-MB-231 cells", "type": "cell-based", "parameters": "induce the expression of the native IDO1 enzyme from its mRNA in the MDA-MB-231 cells; endogenous in cells; host or cells: MDA-MB-231 cells induced with human IFN-γ (50 ng/mL)", "conditions": "IDO1 expression induced by human IFN-γ (50 ng/mL); mean of three", "experimental": "The cellular enzyme activity assay was performed according to the reported procedure with minor modifications[19],[27]–[30],[33],[54]. Briefly, MDA-MB-231 breast cancer cells were selected for this assay because of the presence of IDO1 mRNA in this cell line. First, cells were grown in DMEM/F12 complete media overnight. Then different concentration of human interferon-gamma (IFN-γ) (from 5–1000 ng/mL) was added to it and incubated for 48 hours. This treatment is reported to allow over-expression of IDO1 enzyme in MDA-MB-231 cells. […] Sterile cell-culture grade PBS was used to wash the cells by centrifugation technique. Then, the pellet was lysed in 10 mM HEPES buffer by passing through a sterile syringe. The lysate was used for standard IDO1 assay as mentioned earlier. The relative amount of N-formylkynurenine generated in the presence of the different concentration of IFN-γ was used to optimize the required concentration of IFN-γ for the IDO1 inhibition assay. […] Cells stimulated with IFN-γ alone were used as negative control, while cells stimulated with L-Trp without compound served as positive control. The cells were washed with sterile cell culture grade PBS and lysed in 10 mM HEPES buffer by sterile syringe. The lysate was used for standard IDO1 assay, as mentioned earlier, and the extent of IDO1 enzyme inhibition was determined for the selected compounds."}},
  "data": [
    {"smiles": "CCc1ccccc1Nc1cnn[nH]1", "note": "[N-(2-Ethylphenyl)-1H-1,2,3-triazol-5-amine]", "values": [
      {"measurement": "cellular IDO1 inhibitory activities", "setting": "IDO1 [1]", "result": "nanomolar-level"}
    ]},
    {"smiles": "Oc1ccc(Cl)cc1-c1cnn[nH]1", "note": "[MMG-0358, 4-chloro-2-(1H-1,2,3-triazol-5-yl)phenol]", "values": [
      {"measurement": "cytotoxicity", "setting": "[2]", "result": "low cytotoxicity"},
      {"measurement": "IDO1 inhibitory activities, enzymatic assay", "setting": "IDO1 [3]", "result": "nanomolar-level"},
      {"measurement": "IDO1 inhibitory activities, cellular assay", "setting": "IDO1 [1]", "result": "nanomolar-level"}
    ]},
    {"smiles": "CCOC(=O)c1n[nH]nc1-c1ccc(Cl)c(Cl)c1", "note": "[Compound 2j]", "values": [
      {"measurement": "IC50", "setting": "IDO1 [4]; HPLC based IDO1 inhibition assay", "result": "0.257 ± 0.009", "unit": "µM"},
      {"measurement": "% Of inhibition for IDO1 enzyme", "setting": "IDO1 [4]; 32 nM", "result": 24, "unit": "%"},
      {"measurement": "% Of inhibition for IDO1 enzyme", "setting": "IDO1 [4]; 160 nM", "result": 31, "unit": "%"},
      {"measurement": "% Of inhibition for IDO1 enzyme", "setting": "IDO1 [4]; 800 nM", "result": 52, "unit": "%"},
      {"measurement": "% Of inhibition for IDO1 enzyme", "setting": "IDO1 [4]; 4 µM", "result": 65, "unit": "%"},
      {"measurement": "% Of inhibition for IDO1 enzyme", "setting": "IDO1 [4]; 20 µM", "result": 77, "unit": "%"},
      {"measurement": "% Of inhibition for IDO1 enzyme", "setting": "IDO1 [4]; 100 µM", "result": 77, "unit": "%"},
      {"measurement": "% of Enzyme inhibition (TDO)", "setting": "[5]; 32 nM", "result": 8, "unit": "%"},
      {"measurement": "% of Enzyme inhibition (TDO)", "setting": "[5]; 160 nM", "result": 12, "unit": "%"},
      {"measurement": "% of Enzyme inhibition (TDO)", "setting": "[5]; 800 nM", "result": 25, "unit": "%"},
      {"measurement": "% of Enzyme inhibition (TDO)", "setting": "[5]; 4 µM", "result": 30, "unit": "%"},
      {"measurement": "% of Enzyme inhibition (TDO)", "setting": "[5]; 20 µM", "result": 44, "unit": "%"},
      {"measurement": "% of Enzyme inhibition (TDO)", "setting": "[5]; 100 µM", "result": 53, "unit": "%"},
      {"measurement": "% Of inhibition for TDO enzyme", "setting": "TDO enzyme; 32 nM", "result": 1, "unit": "%"},
      {"measurement": "% Of inhibition for TDO enzyme", "setting": "TDO enzyme; 160 nM", "result": 35, "unit": "%"},
      {"measurement": "% Of inhibition for TDO enzyme", "setting": "TDO enzyme; 800 nM", "result": 36, "unit": "%"},
      {"measurement": "% Of inhibition for TDO enzyme", "setting": "TDO enzyme; 4 µM", "result": 49, "unit": "%"},
      {"measurement": "% Of inhibition for TDO enzyme", "setting": "TDO enzyme; 20 µM", "result": 41, "unit": "%"},
      {"measurement": "% Of inhibition for TDO enzyme", "setting": "TDO enzyme; 100 µM", "result": 43, "unit": "%"},
      {"measurement": "IC50", "setting": "[6]", "result": "0.163 ± 0.025", "unit": "µM"},
      {"measurement": "EC50", "setting": "IDO1 [7]", "result": "0.16 ± 0.007", "unit": "µM"}
    ]}
  ]
}
